test system: HCMV DNA synthesis; experiment: HCMV DNA synthesis by dot-blot hybridization; assay type: cell-based, human cytomegalovirus in HFF cells; conditions: Human betaherpesvirus 5, read-out: HCMV DNA Synthesis, 50% Inhibitory Concentration
Procedure: The amount of HCMV DNA synthesis was determined in two types of experiments: (a) as an integral part of HCMV titer (yield) reduction experiments and (b) as separate experiments to determine only the amount of viral DNA synthesis in the absence or presence of test compounds.
HFF cells were planted in 25 cm^2 flasks and infected with HCMV as described in part 2 and incubated at 37° C. Before harvesting at selected times by the addition of 0.1 volume of 0.2M EDTA, an aliquot of medium was removed for determination of HCMV titer. After harvesting cells into the medium, aliquots were retained for determination of HCMV DNA by hybridization.
HFF cells were planted in 96-well cluster plates at 20,000 cell/well in 200 μl of growth medium [MEM(E)] with 1.1 gm/liter NaHCO3 and 10% fetal bovine serum. After incubation in a humidified atmosphere of 4% CO2 -96% air for 1 to 2 days, growth medium was aspirated and the 70% confluent cells were infected at a m.o.i. of 0.5 p.f.u. per cell by addition of HCMV in 100 μl of MEM(E) with 1.1 gm/l liter NaHCO3 and 5% fetal bovine serum (maintenance medium). Following a 1-hour incubation at 37° C. for virus adsorption, 100 μl of selected concentrations of test compounds were added to each of triplicate wells in twice their final concentration of maintenance medium. Usually 3 to 6 concentrations of compounds were tested in 3.2- or 10-fold dilutions along with appropriate triplicate no drug and no virus controls. Plates were incubated for 7 days and harvested by addition of 100 μl of 0.25M EDTA per well. After a 30-minute incubation of 37° C. to free the cells, the contents of the wells were filtered as described below or frozen at -76° C. for subsequent analysis. The following procedure adapted from Gadler, H., Antimicrob. Agents Chemother., 24:370 (1983) was employed for the hybridization portion of the assay:
The contents of each well were removed and filtered through Gene Screen™ (NEN Research Products), presoaked in 10×SSC (1×SSC is 0.15M NaCl, 0.015M NaCitrate), using a 96-well filtration manifold (Schleicher and Schuell). The original microtiter plate wells were rinsed with 200 μl HEPES buffered saline and the contents added to the filter manifold.
The Gene Screen membrane was dried at room temperature and then baked at 80° to 100° C. for 3 to 4 hours. The DNA on the membrane was denatured by placing the membrane (sample side up) sequentially on filter papers soaked in (a) 0.5M NaOH for 30 minutes, (b) 0.1 M NaOH, 1.5M NaCl for 5 minutes, (c) 1M Tris HCl, pH 7.5 twice each for 5 minutes, (d) 0.5M Tris HCl, pH 7.5, 1.5M NaCl for 5 minutes and then dried at room temperature. The membrane was added to a "hybridization bag" and prehybridized at 65° C. for (greater or equal to) 6 hours in 10 ml 0.2% polyvinylpyrrolidone (MW 40,000); 0.2% ficoll (MW 400,000); 0.2% bovine serum albumin; 0.05 M Tris HCl, pH 7.5; 0.1% sodium pyrophosphate; 1M NaCl; 10% dextran sulfate (ME 500,000) and 0.1 mg/ml denatured salmon testes DNA. […]
Following hybridization, the membrane was washed sequentially in 100 ml 2×SSC at room temperature twice each for 5 minutes, 100 ml 2×SCC plus 1% SDS at 65° C. twice each for 30 minutes and then 100 ml 0.1×SSC at room temperature twice each for 30 minutes. The membrane was dried at room temperature and each filtration spot was cut from the membrane and placed into 4 ml of toluene/DPO scintillant and hybridized label counted in a liquid scintillation spectrometer. […]

| SMILES | IC50 |
| --- | --- |
| Nc1ncnc2c1c(Br)cn2COCCO [UMJD 102, 4-Amino-5-bromo-7-(2-hydroxyethoxymethyl)pyrrolo[2,3-d]-pyrimidine] | 3.2 µM |
| Nc1nc2c(ncn2COCCO)c(=O)[nH]1 [Acyclovir, reference compound] | 35 µM |
| Nc1ncnc2c1c(Cl)cn2COCCO [UMJD 100, 4-Amino-5-chloro-7-(2-hydroxyethoxymethyl)pyrrolo[2,3-d]-pyrimidine] | 15 µM |
| Nc1ncnc2c1c(I)cn2COCCO [UMJD 104, 4-Amino-5-iodo-7-(2-hydroxyethoxymethyl)pyrrolo[2,3-d]-pyrimidine] | 47 µM |
| Nc1nc(O)c2ncn(COC(CO)CO)c2n1 [Ganciclovir (DHPG), reference compound] | 1.1 µM |
